This is an account of results in US7309710B2, “Crystals” (Astellas Pharma Inc., priority 2002, dated 2007).

Data set [1] relates to Ca2+ release-activated Ca2+ channel (CRACC). The data set is described as follows: CRACC inhibitory activity (in vitro test as described in patent reference 1). The class given is cell-based. From the text: (§1) 4,6-Diemthyl-4′-[3,5-bis(trifluoromethyl)-1H-pyrazol-1-yl]nicotinanilide is excellent in terms of the CRACC inhibitory activity, the inhibition selectivity over VOCC, and the activity of suppressing IL-2 production. […] Therefore, a pharmaceutical product containing the compound is useful as an agent for preventing or treating allergic, inflammatory or autoimmune diseases in which CRACC and IL-2 participates. Herein, the allergic, inflammatory or autoimmune diseases include, for example, bronchial asthma, psoriasis, atopic diseases including atopic dermatitis, inflammatory bowel diseases including Crohn disease, digestive ulcer, nephritis, hepatitis, pancreatitis, collagenosis, rheumatoid arthritis, osteoarthritis, and rejection on transplantation. The usefulness on these diseases can be confirmed at the in vitro tests of the CRACC inhibitory activity and the activity of suppressing IL-2 production as described in the patent reference 1 and at various tests using, for example, antigen-induced airway eosinophilia model as a typical disease model of bronchial asthma, and murine collagen-induced arthritis model. 4,6-Dimethyl-4′-[3,5-bis (trifluoromethyl)-1H-pyrazol-1-yl]nicotinanilide may be produced by the method described in the patent reference 1.

Data set [2] deals with antigen-induced airway eosinophilia. Briefly: Antigen-induced airway eosinophilia (rat). The conditions noted are these: test described in patent reference 1. It counts as in vivo.
Description: as §1

A further data set concerns IL-2 production. The data set is described as follows: Activity of suppressing IL-2 production. The class given is cell-based.
Description: as §1

Data set [3] has as its system voltage-operated Ca2+ channel (VOCC). Briefly: Inhibition selectivity for CRACC over VOCC. The class given is cell-based. From the text:
A pyrazole derivative having a high inhibition selectivity for CRACC over voltage-operated Ca^2+ channel (abbreviated as VOCC hereinafter) involved in intracellular calcium regulation of excitatory cells such as smooth muscle cells and nerve cells and having an inhibitory activity against IL-2 production has been reported (for example, patent reference 1).
4,6-Diemthyl-4′-[3,5-bis(trifluoromethyl)-1H-pyrazol-1-yl]nicotinanilide is excellent in terms of the CRACC inhibitory activity, the inhibition selectivity over VOCC, and the activity of suppressing IL-2 production. […] Therefore, a pharmaceutical product containing the compound is useful as an agent for preventing or treating allergic, inflammatory or autoimmune diseases in which CRACC and IL-2 participates. Herein, the allergic, inflammatory or autoimmune diseases include, for example, bronchial asthma, psoriasis, atopic diseases including atopic dermatitis, inflammatory bowel diseases including Crohn disease, digestive ulcer, nephritis, hepatitis, pancreatitis, collagenosis, rheumatoid arthritis, osteoarthritis, and rejection on transplantation. […]

For data set [4], the system named is collagen-induced arthritis. Briefly: Murine collagen-induced arthritis model. The class given is in vivo. The conditions noted are these: test described in patent reference 1.
Description: as §1

The test system of data set [5] is TNCB-induced Contact Hypersensitivity. Briefly: Suppression of TNCB-induced Contact Hypersensitivity. The class given is in vivo. The conditions noted are these: test described in patent reference 1.
Description: as §1

Data set [6] can be described thus: Stability test of the crystals (assay value by HPLC, internal standard method). The class given is physicochemical. The conditions noted are these: for Stability test: assay value by HPLC (internal standard method, peak area): 40° C. under light-resistant; for Stability of the crystal: at 5 to 60° C. for at least three months. The method, then: Because both the α type and β type crystals are stable at 5 to 60° C. for at least three months and can be highly purified by recrystallization, these crystals may be used as raw materials for producing pharmaceutical products. Particularly, these crystals are preferable as raw materials for producing solid pharmaceutical preparations.
(The values express the assay values determined by an internal standard method on the basis of peak area obtained by HPLC)

Turning to `Cc1cc(C)c(C(=O)Nc2ccc(-n3nc(C(F)(F)F)cc3C(F)(F)F)cc2)cn1` [4,6-dimethyl-4′-[3,5-bis(trifluoromethyl)-1H-pyrazol-1-yl]nicotinanilide], the CRACC inhibitory activity result in data set [1] was “excellent”. Also, the “activity of suppressing of antigen-induced airway eosinophilia” value in data set [2] is “very good activities”. Besides, the “activity of suppressing IL-2 production” value in the data set on IL-2 production was “excellent”. Besides, in data set [3], the “inhibition selectivity over VOCC” value was “excellent”. In addition, the “activity of suppressing the arthritis in murine collagen-induced arthritis model” value in data set [4] is “very good activities”. In addition, the “effect on the suppression of TNCB-induced Contact Hypersensitivity” value in data set [5] is reported as “very good activities”.
With `Cc1cc(C)c(C(=O)Nc2ccc(-n3nc(C(F)(F)F)cc3C(F)(F)F)cc2)cn1` [β type crystal, 4,6-dimethyl-4′-[3,5-bis(trifluoromethyl)-1H-pyrazol-1-yl]nicotinanilide], the “Stability test: assay value by HPLC (internal standard method, peak area)” value is 99.7% in data set [6] (After 1 month) and 100.7% in data set [6] (After 3 months). Moreover, the “Stability of the crystal” value in data set [6] is reported as “stable”.
For `Cc1cc(C)c(C(=O)Nc2ccc(-n3nc(C(F)(F)F)cc3C(F)(F)F)cc2)cn1` [α type crystal, 4,6-dimethyl-4′-[3,5-bis(trifluoromethyl)-1H-pyrazol-1-yl]nicotinanilide] the same measures were 100.7%, 99.2% and “stable”.
